Key:
U87 (glioblastoma) = assay: MTT in vitro growth inhibition assay, U87; format: cell-based; conditions: for inhibition at 25 µM: 25 µM of drug, 72 h, read-out: Percentage of Cell Growth Inhibition U87; for GI50: 72 h drug exposure
From the text: (§1) With the desired bolinaquinone analogues 12–43 in hand, we examined their cytotoxicity against a panel of 11 tumour cell lines: HT29 (colon carcinoma), U87 and SJ-G2 (glioblastoma), MCF-7 (breast carcinoma), A2780 (ovarian carcinoma), H460 (lung carcinoma), A431 (skin carcinoma), Du145 (prostate carcinoma), BE2-C (neuroblastoma), MIA (pancreatic carcinoma), SMA (spontaneous murine astrocytoma) and a normal breast cell line (MCF10A). The inclusion of the MCF-10A cell line allowed a determination of a crude measure of relative toxicity while noting that the ultimate arbiter of toxicity requires in vivo evaluation. All analogues were initially screened at a 25 µM drug concentration.
(§2) Stock solutions were prepared as follows and stored at −20°C: drugs were stored as 40 mM solutions in DMSO. All cell lines were cultured in a humidified atmosphere 5% CO2 at 37°C. The cancer cell lines were maintained in Dulbecco's modified Eagle's medium (DMEM) (Trace Biosciences, Australia) supplemented with 10% fetal bovine serum, 10 mM sodium bicarbonate, penicillin (100 IU ml^−1), streptomycin (100 µg ml^−1) and glutamine (4 mM). The non-cancer MCF10A cell line was cultured in DMEM:F12 (1 : 1) cell culture media, 5% heat-inactivated horse serum, supplemented with penicillin (50 IU ml^−1), streptomycin (50 µg ml^−1), 20 mM Hepes, L-glutamine (2 mM), epidermal growth factor (20 ng ml^−1), hydrocortisone (500 ng ml^−1), cholera toxin (100 ng ml^−1) and insulin (10 ug ml^−1).
(§3) Cells in logarithmic growth were transferred to 96-well plates. Cytotoxicity was determined by plating cells in duplicate in 100 µl medium at a density of 2500–4000 cells per well. On day 0 (24 h after plating), when the cells were in logarithmic growth, 100 μl of medium with or without the test agent was added to each well. After 72 h, drug exposure growth inhibitory effects were evaluated using the MTT (3-[4,5-dimethylthiazol-2-yl]-2,5-diphenyl-tetrazolium bromide) assay and the absorbance read at 540 nm. Percentage growth inhibition was determined at a fixed drug concentration of 25 µM. A value of 100% is indicative of complete cell growth inhibition. Those analogues showing appreciable percentage growth inhibition underwent further dose–response analysis allowing for the calculation of a GI50 value. This value is the drug concentration at which cell growth is 50% inhibited based on the difference between the optical density values on day 0 and those at the end of drug exposure.

HT29 (colon carcinoma) = assay: MTT in vitro growth inhibition assay, HT29; format: cell-based; conditions: Homo sapiens; for inhibition at 25 µM: HT-29, 25 µM of drug, 72 h, read-out: Percentage of Cell Growth Inhibition HT29; for GI50: HT-29, 72 h drug exposure
From the text: as §1, §2, §3

[1] = tested on: MCF10A (normal breast cell line); assay: MTT in vitro growth inhibition assay, MCF10A; format: cell-based; conditions: Homo sapiens, MCF-10A; for inhibition at 25 µM: 25 µM of drug, 72 h, read-out: Percentage of Cell Growth Inhibition MCF10A; for GI50: normal breast cell line, 72 h drug exposure
From the text: as §1, §2, §3

[2] = tested on: A2780 (ovarian carcinoma); assay: MTT in vitro growth inhibition assay, A2780; format: cell-based; conditions: Homo sapiens; for inhibition at 25 µM: 25 µM of drug, 72 h, read-out: Percentage of Cell Growth Inhibition A2780; for GI50: 72 h drug exposure
From the text: as §1, §2, §3

A431 (skin carcinoma) = assay: MTT in vitro growth inhibition assay, A431; format: cell-based; conditions: Homo sapiens; for inhibition at 25 µM: A-431, 25 µM of drug, 72 h, read-out: Percentage of Cell Growth Inhibition A431; for GI50: A-431, 72 h, 72 h drug exposure
From the text: as §1, §2, §3

H460 (lung carcinoma) = assay: MTT in vitro growth inhibition assay, H460; format: cell-based; conditions: Homo sapiens; for inhibition at 25 µM: NCI-H460, 25 µM of drug, 72 h, read-out: Percentage of Cell Growth Inhibition H460; for GI50: NCI-H460, 72 h drug exposure
From the text: as §1, §2, §3

MCF-7 (breast carcinoma) = assay: MTT in vitro growth inhibition assay, MCF-7; format: cell-based; conditions: Homo sapiens; for inhibition at 25 µM: MCF7, 25 µM of drug, 72 h, read-out: Percentage of Cell Growth Inhibition MCF-7; for GI50: MCF7, 72 h drug exposure
From the text: as §1, §2, §3

[3] = tested on: Du145 (prostate carcinoma); assay: MTT in vitro growth inhibition assay, Du145; format: cell-based; conditions: Homo sapiens; for inhibition at 25 µM: DU-145, 25 µM of drug, 72 h, read-out: Percentage of Cell Growth Inhibition Du145; for GI50: DU-145, 72 h, 72 h drug exposure
From the text: as §1, §2, §3

BE2-C (neuroblastoma) = assay: MTT in vitro growth inhibition assay, BE2-C; format: cell-based; conditions: Homo sapiens, BE(2)-C, 72 h; for inhibition at 25 µM: 25 µM of drug, read-out: Percentage of Cell Growth Inhibition BE2-C; for GI50: 72 h drug exposure
From the text: as §1, §2, §3

[4] = tested on: MIA (pancreatic carcinoma); assay: MTT in vitro growth inhibition assay, MIA; format: cell-based; conditions: for inhibition at 25 µM: 25 µM of drug, 72 h, read-out: Percentage of Cell Growth Inhibition MIA; for GI50: 72 h drug exposure
From the text: as §1, §2, §3

SJ-G2 (glioblastoma) = assay: MTT in vitro growth inhibition assay, SJ-G2; format: cell-based; conditions: for inhibition at 25 µM: 25 µM of drug, 72 h, read-out: Percentage of Cell Growth Inhibition SJ-G2; for GI50: 72 h drug exposure
From the text: as §1, §2, §3

[5] = tested on: SMA (spontaneous murine astrocytoma); assay: MTT in vitro growth inhibition assay, SMA; format: cell-based; conditions: Mus musculus; for inhibition at 25 µM: 25 µM of drug, 72 h, read-out: Percentage of Cell Growth Inhibition SMA; for GI50: 72 h drug exposure
From the text: as §1, §2, §3

Compound | inhibition at 25 µM (U87 (glioblastoma)) [%] | inhibition at 25 µM (HT29 (colon carcinoma)) [%] | GI50 (HT29 (colon carcinoma)) [µM] | inhibition at 25 µM [1] [%] | inhibition at 25 µM [2] [%] | GI50 [2] [µM] | inhibition at 25 µM (A431 (skin carcinoma)) [%] | GI50 (A431 (skin carcinoma)) [µM] | inhibition at 25 µM (H460 (lung carcinoma)) [%] | inhibition at 25 µM (MCF-7 (breast carcinoma)) [%] | GI50 (MCF-7 (breast carcinoma)) [µM] | inhibition at 25 µM [3] [%] | inhibition at 25 µM (BE2-C (neuroblastoma)) [%] | GI50 (BE2-C (neuroblastoma)) [µM] | inhibition at 25 µM [4] [%] | GI50 [4] [µM] | inhibition at 25 µM (SJ-G2 (glioblastoma)) [%] | GI50 (SJ-G2 (glioblastoma)) [µM] | melting point [°C] | inhibition at 25 µM [5] [%] | also measured
COC1=C(c2ccccc2)C(=O)C(OC)=C(c2ccccc2)C1=O [compound 30, 2,5-Dimethoxy-3,6-diphenylcyclohexa-2,5-diene-1,4-dione] | 52 ± 5 | 73 ± 4 | 16 ± 1.2 | > 100 | > 100 | 5.9 | 59 ± 6 | > 50 | 26 ± 8 | > 100 | 7 ± 0.98 | 35 ± 5 | > 100 | 7 ± 0.1 | 63 ± 5 | 20 ± 2 | > 100 | 12 ± 0.9 | 150 to 152 | > 100 | GI50 (U87 (glioblastoma)): 30 ± 1.8 µM; GI50 [1]: 8.9 ± 1.6 µM; GI50 (H460 (lung carcinoma)): > 50 µM; GI50 [3]: > 50 µM; GI50 [5]: 6.2 ± 0.3 µM
COC1=C(c2ccc3ccccc3c2)C(=O)C(OC)=C(c2ccccc2-c2ccccc2)C1=O [compound 36, 2,5-Dimethoxy-3-(biaryl-2-yl)-6-(naphthalene-3-yl)cyclohexa-2,5-diene-1,4-dione] | 57 ± 2 | > 100 | 11 ± 0.9 | 77 ± 4 | 87 ± 2 | 9 ± 0.6 | 78 ± 2 | 15 ± 1.5 | 65 ± 3 | > 100 | 5.1 ± 0.5 | 51 ± 3 | > 100 | 8.7 ± 0.7 | 78 ± 2 | 12 ± 0.7 | 78 ± 5 | 13 ± 1.5 | 113 to 115 | 84 ± 7 | GI50 (U87 (glioblastoma)): 20 ± 0.9 µM; GI50 [1]: 15 ± 2.2 µM; GI50 (H460 (lung carcinoma)): 18 ± 2.3 µM; GI50 [3]: 21 ± 0.2 µM; GI50 [5]: 10 ± 0.3 µM
COC1=CC(=O)C(OC)=C(c2cccc3ccccc23)C1=O [compound 25, 2,5-dimethoxy-3-(naphthalene-1-yl)cyclohexa-2,5-diene-1,4-dione] | 10 ± 2 | 16 ± 3 | 43 ± 5.5 | < 10 | 66 ± 13 | 21 ± 1.3 | 8 ± 3 | 47 ± 6.7 | < 10 | 28 ± 2 | 29 ± 2 | 10 ± 5 | > 100 | 8 ± 0.5 | 18 ± 4 | 42 ± 3.5 | 54 ± 19 | 22 ± 1.5 | 134 to 137 | 77 ± 3 | GI50 [5]: 20 ± 1.3 µM
COC1=C(c2cccc(-c3ccccc3)c2)C(=O)C(OC)=C(c2ccc3ccccc3c2)C1=O [compound 37, 2,5-Dimethoxy-3-(biaryl-3-yl)-6-(naphthalene-3-yl)cyclohexa-2,5-diene-1,4-dione] | 74 ± 3 | > 100 | 5.4 ± 0.4 | > 100 | 76 ± 3 | 11 ± 0.9 | > 100 | 6 ± 0.9 | 95 ± 1 | 88 ± 4 | 10 ± 2.6 | > 100 | > 100 | 6.7 ± 0.3 | 91 ± 2 | 8.3 ± 1 | > 100 | 9.3 ± 1.2 | 119 to 121 | 85 ± 3 | GI50 (U87 (glioblastoma)): 14 ± 1 µM; GI50 [1]: 11 ± 1.3 µM; GI50 (H460 (lung carcinoma)): 11 ± 0.3 µM; GI50 [3]: 9.8 ± 0.7 µM; GI50 [5]: 13 ± 1 µM
COC1=CC(=O)C(OC)=C(c2ccccc2)C1=O [compound 12, 2,5-Dimethoxy-3-phenylcyclohexa-2,5-diene-1,4-dione] | 12 ± 2 | 24 ± 1 | 42 ± 6.2 | < 10 | 75 ± 7 | 18 ± 0.7 | 10 ± 3 | 40 ± 4.5 | < 10 | 40 ± 3 | 22 ± 3.4 | < 10 | > 100 | 10 ± 1.1 | 31 ± 5 | 29 ± 1.5 | 27 ± 6 | 27 ± 0.9 | 122 to 124 | 49 ± 8 | GI50 (U87 (glioblastoma)): 47 ± 2.2 µM; GI50 (H460 (lung carcinoma)): > 50 µM; GI50 [5]: 29 ± 3.2 µM
COC1=C(c2ccc3ccccc3c2)C(=O)C(OC)=C(c2cccc3ccccc23)C1=O [compound 33, 2,5-Dimethoxy-3-(naphthalene-1-yl)-6-(naphthalene-3-yl)cyclohexa-2,5-diene-2,5-diene-1,4-dione] | 43 ± 11 | 53 ± 2 | 23 ± 1.2 | 86 ± 3 | 98 ± 0.5 | 6.9 ± 1.2 | 57 ± 3 | 23 ± 3.4 | 45 ± 2 | > 100 | 5.6 ± 0.7 | 40 ± 1 | 81 ± 1 | 12 ± 0.9 | 72 ± 2 | 15 ± 0.9 | 92 ± 5 | 14 ± 1.9 | 163 to 165 | 81 ± 10 | GI50 (U87 (glioblastoma)): 26 ± 2.1 µM; GI50 [1]: 13 ± 2.2 µM; GI50 (H460 (lung carcinoma)): 28 ± 2.7 µM; GI50 [3]: 31 µM; GI50 [5]: 11 ± 0.33 µM
COC1=C(c2ccc3ccccc3c2)C(=O)C(OC)=C(c2ccc(OC)cc2OC)C1=O [compound 34, 2,5-Dimethoxy-3-(2,4-dimethoxyphenyl)-6-(naphthalene-3-yl)cyclohexa-2,5-diene-1,4-dione] | 61 ± 4 | 82 ± 2 | 10.2 ± 0.3 | 99 ± 2 | 100 ± 1 | 6.1 ± 0.03 | 85 ± 2 | 15 ± 1 | 49 ± 9 | > 100 | 6.2 ± 0.31 | 41 ± 3 | > 100 | 9.6 ± 0.5 | 70 ± 1 | 18 ± 0.33 | 83 ± 2 | 16 | 159 to 161 | 98 ± 1 | GI50 (U87 (glioblastoma)): 22 ± 2 µM; GI50 [1]: 12 ± 2.4 µM; GI50 (H460 (lung carcinoma)): 35 ± 6.9 µM; GI50 [3]: 27 ± 2.5 µM; GI50 [5]: 9.7 ± 0.6 µM

— paper PMC5936891, “A focused library synthesis and cytotoxicity of quinones derived from the natural product bolinaquinone” (Royal Society Open Science, 2018)
